In the METLIN SMRT retention time set (Domingo-Almenara et al. 2019):

Assay: gradient 5% acetonitrile 3 min, to 50% in 2 min, to 85% in 15 min, held 3 min, 100 µL/min
Conditions: column: Zorbax Extend-C18 2.1 x 50 mm; eluents: water / acetonitrile, 0.1% formic acid
Procedure, shortened: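 A Zorbax Extend-C18 column (2.1 × 50 mm, 1.8 μm) run at 100 μL/min with water and acetonitrile, both containing 0.1% formic acid, separated mixtures of ~100 pure standards. The HPLC was coupled to a quadrupole time-of-flight mass spectrometer operated in positive and negative ionization mode, with dead and dwell volumes of 40 μL and 900 μL. Each retention time was taken from a computationally picked adduct peak that was then manually inspected.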

SMILES	RP-LC retention time [s]
O=C(NC1CCCCC1)C1CCN(c2cncnc2N2CCCCC2)CC1	672
Cc1ccc(NS(=O)(=O)c2cn(CC(C)C)c3ncccc23)cc1C	1040
CC(C)NC(=O)CN1C(=O)COc2ccc(C(=O)NC3CCCC3)cc21	712
COc1ccc(CCNc2nc(-c3ccccc3)cs2)cc1OC	830
COc1ccc2nc(C(=O)NCc3ccc(F)cc3)cn2n1	783
Cc1c(Cl)cccc1S(=O)(=O)N1CCN(c2nc3ccncc3n(C)c2=O)CC1	732
CCCS(=O)(=O)N1CCCC(Cn2cc(COc3ccc4c(c3)CCC4)nn2)C1 (centres undefined)	997
Cc1nnc2ccc(-c3noc(-c4ccccc4)n3)cn12	867
COc1ccc(Cn2nc3c(S(=O)(=O)N4CCc5ccccc5C4)cccn3c2=O)cc1	946
COc1ccc(-c2ccnc3cc(C(=O)Nc4ccc5c(c4)OCO5)nn23)cc1OC	848
O=C(C(Cl)Cl)N1CC2CCC(CC2)C1	956
Cc1nnc(-c2cn(CC(=O)Nc3cccc(F)c3)c3ccccc23)o1	755
Cc1cc(C)cc(S(=O)(=O)N2CCc3c(c(-c4nnc(-c5ccccc5)o4)nn3C)C2)c1	1020
Cc1ccc(C)c(C(=O)N2CCC(COc3ccc(C(=O)NC(C)C)cc3)CC2)c1	912
CC1=C(c2ccccc2)S(=O)(=O)N=C1N1CCCN(C(=O)NC(C)(C)C)CC1	790
CCn1c(C(=O)NCCCN2CCCCC2C)c(N2CCCC2=O)c2cc(F)ccc21 (centres undefined)	654
CCN(CCO)CCCOc1ccc2c(Nc3cc(CC(=O)Nc4cccc(F)c4)[nH]n3)ncnc2c1	611
CCc1ccc(-c2cn3cc(C(=O)NCCN4CCN(CC)CC4)ccc3n2)cc1	576
Cc1cc(C)cc(N2CCC(NC(=O)c3ccsc3)C2=O)c1 (centres undefined)	815
COc1cc(CNCCc2c[nH]c3ccccc23)ccc1OCc1ccc2c(c1)n(C)c(=O)n2C	670
O=C(C1CCCO1)N1CCC(OCc2nc(C3CC3)no2)CC1 (centres undefined)	635
CCc1nc(-c2csc(S(=O)(=O)N3CCCC(C(=O)Nc4ccc(Cl)cc4F)C3)c2)no1 (centres undefined)	1150
CCn1ccc(C(=O)NC2CCN(c3nnc4ccc(Cl)cn34)CC2)n1	581

SMILES	RP-LC retention time [s]
CCn1cc(C(=O)Nc2cc(Cl)ccc2C)c2cccnc21	922
O=C(Cn1ncccc1=O)Nc1nccs1	554
O=C1CC(c2noc(Cc3ccc(F)cc3)n2)CN1c1ccc(F)c(Cl)c1 (centres undefined)	1040
COc1ccccc1OCC(=O)NCCc1sc(-c2ccc(Cl)cc2)nc1C	953
CC(C)c1cc(C2CCCN2C(=O)NC2CCCC2)on1 (centres undefined)	823
CS(=O)(=O)N1CCc2cc(NC(=O)Nc3ccc(Br)cc3F)ccc21	954
COc1ccc(C2C(C(=O)N3CCCC3)c3cc(OC)c(OC)cc3C(=O)N2C)cc1OC (centres undefined)	660
Cc1ccc(-n2ccc(=O)c(-c3nc(-c4ccccc4C)no3)n2)cc1C	1060
Oc1ccc([C@@H]2Oc3ccc(O)cc3[C@@H]3CCC[C@@H]32)cc1	866
O=C(Cn1ncc2c(N3CCN(c4ccccn4)CC3)ncnc21)Nc1cccc(F)c1	563
CSc1ccc(-c2nc3cnccn3c2Nc2ccc(C)cc2Br)cc1	1140
CS(=O)(=O)Nc1ccc(CC(=O)NC2CC2)cc1	585
COc1ccc(-c2noc(Cn3ccn(-c4ccc(Cl)cc4)c(=O)c3=O)n2)cc1OC	803
O=C(C1CC(=O)N(C2CCCCC2)C1)N1CCC2(CC1)NCCc1c2[nH]c2ccccc12 (centres undefined)	654
CC(CNC(=O)c1nc(N2CCOCC2)c2ccccc2n1)c1ccccc1 (centres undefined)	726
Cc1ccc(Cl)cc1NS(=O)(=O)c1cc2c(s1)CCN(C(=O)C1CC1)C2	901
COc1ccc(NC(=O)Cn2c(N3CCCCC3)nc(C)cc2=O)cc1F	717
Cc1c(CCOC(=O)c2ccc([N+](=O)[O-])cc2)sc[n+]1Cc1ccccc1	909
O=C(NCCCn1nc(-c2cccnc2)ccc1=O)c1ccc(F)cc1F	569
O=C(CN1C(=O)CCCc2cc(S(=O)(=O)N3CCCC3)ccc21)NCc1ccccc1	885
COc1ccc(-c2nc3cnccn3c2Nc2cccc(C(=O)NCc3ccco3)c2)cc1	741
CCc1ccc(NC(=O)CCS(=O)(=O)c2ccc3c(c2)CCCN3C(C)=O)cc1	808
Cc1ccc(S(=O)(=O)N2CCC(CCC(=O)NCc3ccccc3)CC2)cc1	873

SMILES	RP-LC retention time [s]
Cc1cc2c(=O)n(CC(=O)Nc3ccc(Cl)cc3C)ccc2s1	833
Cc1cc(NC(=O)C2CCN(C(=O)c3cccc(-n4cnnn4)c3)CC2)no1	621
COc1ccccc1CNC(=O)c1ccc2c(c1)NC(=O)C1CCCCN21 (centres undefined)	809
CC(C)CCNC(=O)C1(CCO)CCN(c2ncccn2)C1 (centres undefined)	614
Cc1csc(NC(=O)C2CCN(S(=O)(=O)c3cc(-c4noc(C)n4)cs3)CC2)n1	829
CCOC(=O)C1CCN(Cc2nnn(-c3ccccc3)c2C)CC1	614
COc1cc(NC(=O)C2CCN(c3nccnc3Sc3ccccc3)CC2)cc(OC)c1	1040
COc1ccccc1CC(=O)N1CCCn2nc(-c3ccc(C)cc3)cc2C1	930
CC(=O)N1c2ccc(S(=O)(=O)N3CCCCC3)cc2CC1C(=O)NCCCN1CCCCC1 (centres undefined)	577
CCCNC(=O)C1CCCN(c2nc3ncn(CC(=O)Nc4ccc(C(C)C)cc4)c(=O)c3s2)C1 (centres undefined)	801
O=S(=O)(c1cccn2c(SCc3ccccc3Cl)nnc12)N1CCCCC1	927
COc1ccc(-c2nc3cc(C)ccn3c2Nc2ccc(C)cc2)cc1	761
Cc1cnc(C2CCC2)n1CCNC(=O)C1(c2ccccc2)CC1	654
O=C(Nc1ccc(N2CCN(Cc3ccc(F)cc3)C2=O)nc1)c1ccco1	749
C(=C\c1ccccc1)/CN1CCN(C(c2ccccc2)c2ccccc2)CC1	972
O=C(CCl)NC1(C(=O)O)CCCC1	661
O=C(Cn1nc2c3cc(-c4ccc(F)cc4)nn3ccn2c1=O)Nc1ccc(F)cc1	888
CCc1cc(=O)n(CC(=O)Nc2cccc(Cl)c2)c(N2CCOCC2)n1	788
Cc1ccc(NC(=O)C(C)C2CCN(C(=O)Nc3ccccc3)CC2)cc1C (centres undefined)	900
O=C(CN1C(=O)C2CCCCN2c2ccc(C(=O)N3CCOCC3)cc21)Nc1ccc(Cl)cc1 (centres undefined)	832
O=C(CCc1nc(-c2ccc(N3CCCC3)cc2)no1)N1CCN(c2ccc(Cl)cc2)CC1	1240
COc1ccc(-c2nc3ncccn3c2Nc2ccc(OC)c(OC)c2)cc1	640
O=C(Nc1ccc(Cl)c(C(F)(F)F)c1)C(=O)c1ccc[nH]1	1050

SMILES	RP-LC retention time [s]
Cc1cccc(C)c1NC(=O)Cn1c(C)nc2onc(C)c2c1=O	845
COc1ccc(-c2nc3cc(C)ccn3c2NC(=O)Cc2cccc3ccccc23)cc1	726
CCN1CCN(c2ncnc3c2cnn3-c2ccccc2Cl)CC1	582
CCOc1ccccc1CNC(=O)C1CCN(Cc2c(C)n(CC)c3ccccc23)CC1	780
COc1ccc(-c2nc3cnccn3c2NCCC(=O)Nc2ccc3c(c2)OCO3)cc1	673
O=C(Nc1ccccc1F)C1CCCN(S(=O)(=O)c2cc(-c3noc(C4CCC4)n3)cs2)C1 (centres undefined)	1160
COC(=O)Cn1nc(-c2nc(-c3ccc(C)cc3)no2)ccc1=O	928
CN(C)S(=O)(=O)c1ccc(C(=O)Nc2sc3c(c2C#N)CC(C)(C)NC3(C)C)cc1	574
COc1ccc(NS(=O)(=O)c2c[nH]c3ncccc23)cc1Cl	729
CCc1noc(NC(C)=O)c1-c1ccc(C)c(S(=O)(=O)NCCc2ccccc2)c1	855
Cc1cc(-c2nnc(-c3ccccc3)o2)c(C)n1CC(=O)NCc1cccc(Cl)c1	973
COc1ccc(CNC(=O)C2(C)CCN(S(=O)(=O)c3ccc(Br)s3)CC2)cc1	961
O=C(CCc1ccc2cc[nH]c2c1)NCc1cccs1	806
CCn1cc(S(=O)(=O)N2CCN(c3ccccc3)CC2)c2cccnc21	969
CN1C(=O)C2CCCCN2c2ccc(C(=O)NCCCN(C)C3CCCCC3)cc21 (centres undefined)	655
O=C(NCCc1ccncc1)c1cnn(-c2ccccc2)n1	560
O=C(CSc1cc(N2CCN(c3ccccc3F)CC2)ncn1)Nc1ccc(Cl)cc1F	1310
CCOc1ccc(NC(=O)Cn2cccc2-c2nnc(-c3ccccc3)o2)cc1	990
CNC(=O)CCc1nc2ccccc2n(CC(=O)NCCCc2ccccc2)c1=O	704
COC[C@@H]1CN(Cc2ccc(C#N)cc2)C[C@H]1c1ccccn1	553
